Data set [1] concerns GBM cells. The data set can be described thus: Annexin V/PI apoptosis assay. It is filed as cell-based, human. To be noted: 20 μM.
The next data set deals with ERβ target genes. The data set can be described thus: RT-qPCR of ERβ target genes in patient derived GSCs. The class given is cell-based, human. To be noted: 10 μM, 72h, GSC-040815, GSC-031417, RT-qPCR. A general note: Quantitative PCR measures a nucleic acid by following its amplification.
In the next data set the test system is primary GSCs. The data set can be described thus: CellTiter Glo cell viability assay, patient derived GSCs. It is filed as cell-based, human. The settings on record: multiple primary GSCs. For orientation: Cellular ATP, detected with luciferase, serves as a proxy for viable cell number.
The subject of the next data set is U251 and U87 cells. The data set can be described thus: Colony formation. The class given is cell-based, human. The settings on record: 10 μM.
Data set [2] relates to U251 GBM model cells expressing ERβ. The data set can be described thus: MTT cell viability assay, U251 GBM model cells expressing ERβ. The class given is cell-based, human. To be noted: read-out: growth inhibitory activity IC50.
The subject of the next data set is normal human astrocytes. The data set can be described thus: MTT cell viability assay, normal human astrocytes. The class given is cell-based. A general note: Formazan colour is commonly taken as a measure of viable cells.
For data set [3], the system named is GBM cells. The data set can be described thus: GBM cell viability. The settings on record: read-out: GBM cell viability IC50. The class given is cell-based, human.
The subject of data set [4] is U251 subcutaneous xenograft. To be noted: 20 mg/kg/day i.p.
A further data set concerns orthotopic U251 tumor. The data set can be described thus: Orthotopic U251 xenograft model. To be noted: 50 mg/kg/i.p. The class given is in vivo, mice.
Data set [5] concerns GSC-040815 orthotopic tumor. The data set can be described thus: Orthotopic xenograft model with patient-derived GSC-040815 cells. The class given is in vivo, SCID mice. The settings on record: 50 mg/kg/i.p.
Data set [6] addresses T1, ERβ (Homo sapiens, UniProt Q92731). The data set can be described thus: PolarScreen ER competitive binding assay. The settings on record: based on EC50 values from polar screen ERα and ERβ assays.
The target of a further data set is ERα (Homo sapiens, UniProt P03372). The data set can be described thus: ERE-Luc reporter gene assay in HEK293T cells expressing ERα. The class given is cell-based. The settings on record: 24 hours.
Sequence of ERα (P03372 whole entry): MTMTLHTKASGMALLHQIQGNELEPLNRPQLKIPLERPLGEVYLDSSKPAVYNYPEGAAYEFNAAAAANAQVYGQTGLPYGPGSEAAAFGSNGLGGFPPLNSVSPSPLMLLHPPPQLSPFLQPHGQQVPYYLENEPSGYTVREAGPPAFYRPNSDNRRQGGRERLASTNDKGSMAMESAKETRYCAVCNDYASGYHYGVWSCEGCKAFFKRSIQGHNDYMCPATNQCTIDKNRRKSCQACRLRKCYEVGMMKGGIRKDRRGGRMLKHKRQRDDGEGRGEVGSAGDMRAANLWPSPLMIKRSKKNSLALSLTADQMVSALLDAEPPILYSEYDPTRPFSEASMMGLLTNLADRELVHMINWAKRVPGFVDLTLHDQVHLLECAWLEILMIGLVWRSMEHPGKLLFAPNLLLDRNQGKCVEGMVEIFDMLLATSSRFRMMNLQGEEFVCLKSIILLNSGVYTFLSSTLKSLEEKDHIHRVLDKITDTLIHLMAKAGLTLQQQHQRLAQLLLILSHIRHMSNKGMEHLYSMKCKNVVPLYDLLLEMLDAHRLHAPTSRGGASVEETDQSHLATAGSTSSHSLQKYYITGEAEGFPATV
Data set [7] concerns U251 and U87 GBM model cells. The data set can be described thus: Matrigel invasion chamber assay. It is filed as cell-based, human. To be noted: 10μM, 22h.
For data set [8], the target named is T1, ERβ. The data set can be described thus: ERE-Luc reporter gene assay in HEK293T cells expressing ERβ. The settings on record: 24 hours. The class given is cell-based.
A further data set has as its system U251 GBM cells. The data set can be described thus: MTT cell viability assay, WT U251 GBM cells. It is filed as cell-based, human.
A further data set concerns U251- ERβ KO cells. The data set can be described thus: Invasion and colony formation of U251-ERβ KO cells. The class given is cell-based, human.
Data set [9] relates to GSC-031417, GSC-012015, and GSC-040815 cells. The data set can be described thus: Neurosphere formation assay. The class given is cell-based, human. To be noted: 20 μM, three GSC model cells.
The conditions of data set [10]: mouse, in vivo, ip, 20 mg/kg.
A further data set relates to SOX2, and OCT4. The data set can be described thus: Western blotting of stemness markers in GSCs. The class given is cell-based, human.
Another data set relates to U251-ERβ-KO cells. The data set can be described thus: MTT cell viability assay, U251-ERβ-KO cells. It is filed as cell-based, human.
Data set [11] has as its target T1, ERβ. The data set can be described thus: ERE-Luc reporter gene assay in U251 GBM cells expressing ERβ. It is filed as cell-based. The settings on record: 24 h.
For data set [12] the following is noted: no reference given; cited from earlier work.
In data set [13] the test system is GBM cells. The settings on record: read-out: IC50 in GBM cells, no reference given; cited from earlier work.

Structures are written as SMILES. “And” between values parts separate entries of the source, which are not always exact repeats. Identical values can stand only once. Like-named read-outs stand apart in the source and are kept apart here.

T1 sequence (Q92731 whole entry): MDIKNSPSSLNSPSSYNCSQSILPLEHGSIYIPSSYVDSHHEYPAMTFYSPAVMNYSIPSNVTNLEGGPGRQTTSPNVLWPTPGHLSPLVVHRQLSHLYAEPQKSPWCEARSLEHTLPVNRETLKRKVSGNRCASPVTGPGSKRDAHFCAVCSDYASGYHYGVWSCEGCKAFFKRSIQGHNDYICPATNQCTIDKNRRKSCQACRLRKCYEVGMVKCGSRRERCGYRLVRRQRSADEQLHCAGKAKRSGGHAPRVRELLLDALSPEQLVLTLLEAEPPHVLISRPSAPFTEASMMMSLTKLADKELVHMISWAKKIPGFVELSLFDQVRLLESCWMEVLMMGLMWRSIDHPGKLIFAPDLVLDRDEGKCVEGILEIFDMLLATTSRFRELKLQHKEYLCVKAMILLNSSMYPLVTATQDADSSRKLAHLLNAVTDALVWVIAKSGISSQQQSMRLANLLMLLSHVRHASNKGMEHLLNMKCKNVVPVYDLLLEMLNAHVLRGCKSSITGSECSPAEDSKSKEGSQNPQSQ

With `CCN(CC)CCCC(C)NC(=O)c1ccc2c(c1)C(=O)c1ccccc1C2=O` (stereo not shown) [CIDD-0149897], the “apoptosis of GBM cells” value with GBM cells [1] is “significantly promoted apoptosis”. The “expression of ERβ target genes” value with ERβ target genes is reported as “activation of ERβ target genes”. Besides, the “cytotoxic activity against primary GSCs” value in the data set with primary GSCs is reported as “potent cytotoxic activity”. Also, the long-term colony formation result in the data set with U251 and U87 cells was “significantly reduced”. For the same compound, the IC50 was 7.4 µM and ~7.4 µM in data set [2]; 7 to 15 µM in the data set on GBM cells [3]. Besides, the “effect on viability of normal human astrocytes” value is recorded as “little to no effect” in the data set on normal human astrocytes and “no/limited effect” in the data set on normal human astrocytes (listed as CIDD-014987). The “ERβ target genes in tumor tissues, RT-qPCR” value in [4] was “significant increase”. For the same compound, the “tumor progression compared to vehicle” value in data set [4] (5 days/week) is recorded as “significantly reduced”. In data set [4] (after 35 days of treatment), the “tumor weights compared to vehicle” value is “significantly smaller”. For the same compound, the “Ki-67 positive proliferating cells, IHC” value (in [4] (tumors); in the data set on orthotopic U251 tumor (tumor sections)) was “fewer proliferating cells” each time. The “survival of orthotopic U251 tumor bearing mice” value in the data set with orthotopic U251 tumor is recorded as “significantly increased the survival”. Besides, in data set [5], the “Ki-67 positive cells, IHC” value is given as “significantly decreased”. Moreover, the “survival of GSC tumor-bearing mice” value in data set [5] was “significantly enhanced the survival”. Also, the “selectivity for ERβ over ERα” value at ERβ [6] is given as 40 fold. In addition, on ERα, the ERα reporter activation result is reported as “no activation of ERα reporter”. The GBM cells invasion result in [7] was “significantly reduced”. Further, the figures for the ERβ reporter activity result on ERβ [8] and at ERβ [11] were “enhanced ERβ reporter activity in a dose dependent manner” and “enhanced ERβ reporter activity in a dose dependent manner in U251 GBM cells”, respectively. In the data set on U251 GBM cells, the “effect on U251 cell viability” value was “significantly decreased”. Further, the “invasion and colony formation of U251- ERβ KO cells” value in the data set on U251- ERβ KO cells was “no significant effect”. In addition, the neurosphere growth result in data set [9] was “significantly reduced”. Moreover, in [10], the “mean half-life, terminal elimination phase” value is 9.59 h. For the same compound, the “time to maximum blood concentration” value in data set [10] is “less than 15 min”. In addition, the “expression of stemness markers” value with SOX2, and OCT4 is on record as “reduced the expression of stemness markers”. Also, the “effect on viability of ERβ-KO cells” value was “little to no effect” in the data set on U251-ERβ-KO cells and “no/limited effect” in the data set on U251-ERβ-KO cells (listed as CIDD-014987).
For `Oc1ccc([C@H]2COc3cc(O)ccc3C2)cc1` [S-equol], the brain penetration result in data set [12] is “lacks brain penetration”. The IC50 in the data set on GBM cells [13] is 100 to 200 µM.

Usually IC50 stands for the concentration that gives 50% inhibition.

The record behind these values is publication PMC10811744 (Molecular cancer therapeutics, 2023).
